Laboratory results: patent US20030176465A1, “Cyclic amino acid derivatives” (priority 2000, published 2003)
Where a name gives a salt, the structure may show the parent alone.

What was measured:
factor Xa, human = factor Xa, human (Homo sapiens, UniProt P00742); assay: Inhibition of factor Xa (IC50, headed 'Affinity to Receptors'); format: biochemical
Source text: The inhibition of factor Xa by the compounds according to the invention and the measurement of the anticoagulant and antithrombotic activity can be determined by conventional in-vitro or in-vivo methods. A suitable method is described, for example, by J. Hauptmann et al. in Thrombosis and Haemostasis 1990, 63, 220-223.
The inhibition of factor Xa can be measured, for example, by the method of T. Hara et al. in Thromb. Haemostas. 1994, 71, 314-319.

TF/VIIa = TF/VIIa (Homo sapiens, UniProt P08709); assay: Inhibition of TF/VIIa (IC50, headed 'Affinity to Receptors'); format: biochemical
Source text: The inhibition of factor VIIa by the compounds according to the invention and the measurement of the anticoagulant and antithrombotic activity can be determined by conventional in-vitro or in-vivo methods. A conventional method for the measurement of the inhibition of factor VIIa is described, for example, by H. F. Ronning et al. in Thrombosis Research 1996, 84, 73-81.

Chain of TF/VIIa (P08709 213-466 limits assumed): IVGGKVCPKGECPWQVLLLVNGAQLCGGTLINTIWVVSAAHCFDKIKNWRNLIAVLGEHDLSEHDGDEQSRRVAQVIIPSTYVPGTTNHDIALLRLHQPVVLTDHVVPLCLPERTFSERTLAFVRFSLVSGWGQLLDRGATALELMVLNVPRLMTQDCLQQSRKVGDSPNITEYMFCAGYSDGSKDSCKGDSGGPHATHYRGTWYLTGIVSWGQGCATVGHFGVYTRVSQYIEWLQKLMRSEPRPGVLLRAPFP
Chain of TF/VIIa (P08709 61-212 limits assumed): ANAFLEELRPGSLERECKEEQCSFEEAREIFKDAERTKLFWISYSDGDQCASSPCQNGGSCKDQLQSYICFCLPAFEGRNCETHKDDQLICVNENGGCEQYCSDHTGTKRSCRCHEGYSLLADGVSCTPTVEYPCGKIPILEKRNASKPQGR
Chain of TF/VIIa (P13726 33-295 partner): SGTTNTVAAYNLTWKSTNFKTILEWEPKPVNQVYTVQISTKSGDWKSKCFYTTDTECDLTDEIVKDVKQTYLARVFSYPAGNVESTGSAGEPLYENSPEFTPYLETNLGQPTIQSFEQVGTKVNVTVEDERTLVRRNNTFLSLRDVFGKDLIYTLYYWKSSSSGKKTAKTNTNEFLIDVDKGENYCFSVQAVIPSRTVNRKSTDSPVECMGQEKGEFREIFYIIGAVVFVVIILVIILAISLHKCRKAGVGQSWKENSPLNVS
Chain of factor Xa, human (P00742 235-488 limits assumed): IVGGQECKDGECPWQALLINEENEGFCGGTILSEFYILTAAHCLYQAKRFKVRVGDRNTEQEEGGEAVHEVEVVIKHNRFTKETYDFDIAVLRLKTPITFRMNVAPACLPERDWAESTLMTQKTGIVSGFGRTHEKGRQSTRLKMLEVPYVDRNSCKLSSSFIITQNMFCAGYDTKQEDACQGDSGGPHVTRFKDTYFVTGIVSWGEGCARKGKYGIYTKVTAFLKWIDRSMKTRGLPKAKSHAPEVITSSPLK
Chain of factor Xa, human (P00742 41-179 limits assumed): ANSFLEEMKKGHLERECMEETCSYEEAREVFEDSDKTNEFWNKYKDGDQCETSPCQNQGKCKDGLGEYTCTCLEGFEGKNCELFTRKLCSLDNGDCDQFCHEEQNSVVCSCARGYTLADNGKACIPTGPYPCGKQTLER

Row | melting point | IC50 (factor Xa, human) [nM] | IC50 (TF/VIIa) [nM] | Compound
1 | 180 °C (dec.) |  |  | Nc1nc(F)c(F)c(N2CCC[C@H]2C(=O)Nc2ccc(-c3ccccc3S(N)(=O)=O)cc2)c1F (as salt: trifluoroacetate) [AF, N-(2′-sulfamoylbiphenyl-4-yl)-(2S)-1-(2-amino-3,5,6-trifluoropyridin-4-yl)pyrrolidine-2-carboxamide, trifluoroacetate]
2 | 98 °C (dec.) | 340 | 440 | NC(=NO)c1cccc(N2CCCCC2C(=O)Nc2ccc(-c3ccccc3S(N)(=O)=O)cc2)c1 [DA, N-(2′-sulfamoylbiphenyl-4-yl)-(2R,S)-1-[3-(N-hydroxyamidino)phenyl]piperidine-2-carboxamide]
